{
  "source": "patent US8076266B2",
  "about": "“Urea phosphite fungicide” (Lidochem, Inc., priority 2004, dated 2011)",
  "key": {"[1]": {"assay_type": "physicochemical", "excerpt": "[…]. 55 grams phosphorous acid crystals were blended with 42 grams urea pills and stirred in a covered container at room temperature. […]."}, "[2]": {"tested_on": "Downey Mildew fungus on lettuce", "conditions": "in vivo"}},
  "data": [
    {"compound": "Urea Phosphite [Example 4]", "values": [
      {"measurement": "Stability of liquid on heating / cooling", "setting": "[1]", "result": "stable upon heating to 90 °C and crystals formed upon cooling"}
    ]},
    {"compound": "NC(N)=O.OP(O)O", "note": "[Urea Phosphite]", "values": [
      {"measurement": "Downey mildew rating, Mean of 4 Replications", "setting": "[2]", "result": 3.93},
      {"measurement": "Pathological acerbation", "setting": "[2]", "result": "no indication of pathological acerbation"},
      {"measurement": "Ranking", "setting": "[2]", "result": 1}
    ]},
    {"compound": "urea phosphite [Example 2]", "values": [
      {"measurement": "Stability of liquid on heating / cooling", "setting": "[1]", "result": "stable upon heating to 90 °C or cooling to 0 °C"}
    ]},
    {"compound": "potassium phosphite [2 (potassium phosphite)]", "values": [
      {"measurement": "Downey mildew rating, Mean of 4 Replications", "setting": "[2]", "result": 4.81},
      {"measurement": "Ranking", "setting": "[2]", "result": 4}
    ]},
    {"compound": "potassium phosphite [1 (potassium phosphite)]", "values": [
      {"measurement": "Downey mildew rating, Mean of 4 Replications", "setting": "[2]", "result": 4.62},
      {"measurement": "Ranking", "setting": "[2]", "result": 3}
    ]}
  ]
}
